Measurements published in patent US10738080B2, “Inhibitors of beta integrin-G protein alpha subunit binding interactions” (priority 2010, dated 2020).
Like-named read-outs stand apart in the source and are kept apart here. No end group written: not given here. *: point of attachment. Myristoyl = CCCCCCCCCCCCCC(=O)*

Legend:
human platelets [1] = conditions: PAR4AP 50 μM, 250 μM peptide (150 μM also in FIG. 17G)
Method: Washed human or mouse platelets resuspended in modified Tyrode's buffer (3×10^8/ml, 50 μl) were incubated with 10 μg/ml Oregon Green^488-conjugated fibrinogen (Molecular Probes) and 50 μM PAR4AP for 30 minutes at 22° C. as previously described^26. The reaction was diluted with 0.5 ml of PBS and analyzed by flow cytometry using FACS Caliber (BD Biosciences, San Jose, Calif.).

human platelets [2] = system: human platelets
Method: (§1) Platelet aggregation assays were carried out as follows: Platelet aggregation and secretion was measured in a turbidometric platelet aggregometer (Chronolog) at 37° C. with stirring (1000 rpm). Washed platelets (3×10^8/ml) in modified Tyrode's buffer were stimulated with thrombin (Enzyme Research Laboratories). For talin knockdown platelet aggregation assay stimulated with manganese and ADP, manganese and ADP was mixed prior to experiment to achieve final concentration of 1 mM manganese and 5 μM ADP in reaction tube. Aggregation traces shown are representative of at least three independent experiments.
Platelet aggregation assays were performed with myristoylated peptide mP5, myristoylated peptide of SEQ: ID NO: 87, or their respective scarmbled control peptides, as essentially described herein. Briefly, washed human platelets were preincubated with 25, 50, 100, 250, or 500 μM peptide solubilized in DMSO.

mouse platelets = conditions: 30 μM peptide
Method: as §1

platelets = conditions: ATP secretion
Method: as §1

human platelets [3] = conditions: resting platelets, 250 μM peptide
Method: Platelet Adhesion Assays were carried out as follows: As described before(6), microtiter wells were coated with 30 μg/ml fibrinogen in PBS overnight. Washed human platelets in modified Tyrode's buffer in the absence or presence of 1 mM MnCl2 were incubated in the microtiter wells for one hour at 37° C. in a CO2 incubator. After 3 washes, 50 μl of reaction buffer (0.3% p-nitrophenyl phosphate (Sigma) in 1% Triton-X-100, 50 mM sodium acetate, pH 5.0) was added into each microtiter well and incubated at 37° C. for one hour. The reaction was stopped by adding 50 μl of 1 M NaOH. Results were determined by reading OD at 405 nm wave length. The percentage of platelet adhesion was estimated from the ratio of the readings of adherent platelets to that of total platelets. Statistic significance was determined using t test (n=3).

| Substance | agonist (PAR4AP)-induced fibrinogen binding to platelets (inside-out signaling) (human platelets [1]) | agonist (PAR4AP)-induced fibrinogen binding to platelets (inside-out signaling) (human platelets [1]; listed as Myr-P5) | platelet aggregation induced by thrombin (human platelets [2]) | second wave of platelet aggregation (human platelets [2]) | platelets aggregation induced by thrombin (human platelets [2]; 30 μM peptide, human platelets) | platelets aggregation induced by thrombin (human platelets [2]; 200 μM peptide) | platelets aggregation induced by thrombin (mouse platelets) | platelet granule secretion (platelets) | platelet adhesion to immobilized fibrinogen (human platelets [3]) |
| --- | --- | --- | --- | --- | --- | --- | --- | --- | --- |
| Myr-EEERA [mP5] | no effect | without affecting | inhibited | inhibited | inhibited | inhibited | inhibited | inhibited | nor does it affect |
| Myristoyl-KFEEERARAKWDT [mP13] |  |  |  |  |  |  |  |  | inhibited |
